Paper PMC7782793, “Hydroxamic acid-modified peptide microarrays for profiling isozyme-selective interactions and inhibition of histone deacetylases” (Nature Communications, 2021)
Where “and” joins values, the source holds several entries; their conditions need not be identical. Equal entries are not always repeated. Marks after values point to notes of the source that are not given here. Non-standard residues stand in square brackets, D forms with d. Residues, ends and D or L forms follow the SMILES beside them. *: point of attachment. Asu = N[C@@H](CCCCCC(=O)O)C(=O)O; NHOH = ON*

How the values were obtained:
Assay type in all cases: biochemical
HDAC8 = target: T1, HDAC8 (Homo sapiens, UniProt Q9BY41); test: HDAC inhibition assay (fluorogenic, Ac-Leu-Gly-Lys(Tfa)-AMC); conditions: HDAC8, replicates
T1 construct: HDAC8 (full length, C-terminal His tag, BPS Bioscience, cat. #: 50008); purchased BPS Bioscience 50008
T1 sequence (Q9BY41 1-377): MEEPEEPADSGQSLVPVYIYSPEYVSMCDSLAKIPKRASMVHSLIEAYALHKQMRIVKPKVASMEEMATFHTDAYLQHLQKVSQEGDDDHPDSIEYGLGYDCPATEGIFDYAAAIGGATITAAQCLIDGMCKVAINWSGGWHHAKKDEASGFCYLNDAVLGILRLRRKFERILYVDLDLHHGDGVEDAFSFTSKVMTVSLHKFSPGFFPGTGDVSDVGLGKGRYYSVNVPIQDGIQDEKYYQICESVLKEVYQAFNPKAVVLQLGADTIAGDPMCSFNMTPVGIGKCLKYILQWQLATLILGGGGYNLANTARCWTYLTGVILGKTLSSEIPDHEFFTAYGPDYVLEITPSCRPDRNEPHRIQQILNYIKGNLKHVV

HDAC6 = target: T2, HDAC6 (Homo sapiens, UniProt Q9UBN7); test: HDAC inhibition assay (fluorogenic, Ac-Leu-Gly-Lys(Ac)-AMC); conditions: HDAC6, replicates
T2 construct: HDAC6 (full length, BPS Bioscience, cat. #: 50056); purchased BPS Bioscience 50056
T2 sequence (Q9UBN7 1-1215): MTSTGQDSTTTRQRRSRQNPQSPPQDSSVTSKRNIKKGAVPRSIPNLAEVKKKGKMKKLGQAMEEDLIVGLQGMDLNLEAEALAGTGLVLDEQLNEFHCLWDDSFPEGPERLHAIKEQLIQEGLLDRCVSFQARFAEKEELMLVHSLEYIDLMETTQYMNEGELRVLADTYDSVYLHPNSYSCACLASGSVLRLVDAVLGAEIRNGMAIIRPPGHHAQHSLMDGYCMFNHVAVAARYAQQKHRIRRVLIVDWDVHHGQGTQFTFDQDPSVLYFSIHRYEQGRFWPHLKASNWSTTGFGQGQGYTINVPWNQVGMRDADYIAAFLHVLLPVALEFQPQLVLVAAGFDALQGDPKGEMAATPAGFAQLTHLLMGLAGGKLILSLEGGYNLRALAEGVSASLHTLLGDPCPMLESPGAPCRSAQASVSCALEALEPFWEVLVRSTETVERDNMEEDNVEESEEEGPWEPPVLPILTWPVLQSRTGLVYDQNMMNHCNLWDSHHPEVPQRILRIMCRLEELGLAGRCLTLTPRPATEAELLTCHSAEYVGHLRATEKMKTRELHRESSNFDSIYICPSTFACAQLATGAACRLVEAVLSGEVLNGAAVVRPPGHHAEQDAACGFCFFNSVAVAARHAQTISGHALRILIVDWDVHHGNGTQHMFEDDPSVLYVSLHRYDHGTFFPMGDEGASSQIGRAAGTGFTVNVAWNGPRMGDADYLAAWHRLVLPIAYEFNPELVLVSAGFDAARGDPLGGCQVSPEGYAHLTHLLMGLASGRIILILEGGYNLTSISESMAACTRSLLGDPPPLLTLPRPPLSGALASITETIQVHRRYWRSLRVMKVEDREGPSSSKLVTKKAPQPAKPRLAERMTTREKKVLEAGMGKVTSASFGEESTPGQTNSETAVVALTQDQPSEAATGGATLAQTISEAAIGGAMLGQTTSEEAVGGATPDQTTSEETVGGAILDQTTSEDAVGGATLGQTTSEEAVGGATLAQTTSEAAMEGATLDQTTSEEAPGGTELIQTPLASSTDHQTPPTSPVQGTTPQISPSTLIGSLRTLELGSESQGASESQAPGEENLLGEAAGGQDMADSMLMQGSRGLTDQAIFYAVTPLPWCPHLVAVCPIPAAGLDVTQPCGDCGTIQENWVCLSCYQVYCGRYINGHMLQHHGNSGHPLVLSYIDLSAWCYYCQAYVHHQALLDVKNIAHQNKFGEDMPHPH

HDAC2 = target: T3, HDAC2 (Homo sapiens, UniProt Q92769); test: as above; conditions: HDAC2, replicates
T3 construct: HDAC2 (full length, C-terminal His tag, BPS Bioscience, cat. #: 50002); purchased BPS Bioscience 50002

HDAC1 = target: T4, HDAC1 (Homo sapiens, UniProt Q13547); test: as above; conditions: HDAC1, replicates
T4 construct: HDAC1 (full length, C-terminal His tag, C-terminal FLAG tag, BPS Bioscience, cat. #: 50051); FLAG (C); purchased BPS Bioscience 50051

HDAC3/NCoR2 = target: T5, HDAC3/NCoR2 (Homo sapiens, UniProt O15379); test: as above; conditions: HDAC3, replicates
T5 construct: HDAC3/NCoR2 (full length, C-terminal His tag, NCoR2 N-terminal GST tag); purchased BPS Bioscience 50003

[1] = log[inhibitor(M)] -10,5850266520292*

T4 sequence (Q13547 whole entry): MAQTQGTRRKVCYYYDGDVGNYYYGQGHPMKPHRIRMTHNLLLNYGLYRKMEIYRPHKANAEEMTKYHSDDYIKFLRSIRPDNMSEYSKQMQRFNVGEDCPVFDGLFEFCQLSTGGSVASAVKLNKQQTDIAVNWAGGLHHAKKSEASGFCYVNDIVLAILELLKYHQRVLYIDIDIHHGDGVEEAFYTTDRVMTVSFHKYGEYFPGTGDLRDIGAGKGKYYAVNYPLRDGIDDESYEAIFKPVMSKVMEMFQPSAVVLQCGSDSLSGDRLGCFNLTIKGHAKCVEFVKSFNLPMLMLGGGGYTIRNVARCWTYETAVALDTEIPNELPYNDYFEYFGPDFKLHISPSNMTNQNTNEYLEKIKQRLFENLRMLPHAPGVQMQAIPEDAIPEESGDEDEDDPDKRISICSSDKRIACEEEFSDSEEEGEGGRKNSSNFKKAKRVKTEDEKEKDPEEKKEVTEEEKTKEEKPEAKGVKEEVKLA
T3 sequence (Q92769 whole entry): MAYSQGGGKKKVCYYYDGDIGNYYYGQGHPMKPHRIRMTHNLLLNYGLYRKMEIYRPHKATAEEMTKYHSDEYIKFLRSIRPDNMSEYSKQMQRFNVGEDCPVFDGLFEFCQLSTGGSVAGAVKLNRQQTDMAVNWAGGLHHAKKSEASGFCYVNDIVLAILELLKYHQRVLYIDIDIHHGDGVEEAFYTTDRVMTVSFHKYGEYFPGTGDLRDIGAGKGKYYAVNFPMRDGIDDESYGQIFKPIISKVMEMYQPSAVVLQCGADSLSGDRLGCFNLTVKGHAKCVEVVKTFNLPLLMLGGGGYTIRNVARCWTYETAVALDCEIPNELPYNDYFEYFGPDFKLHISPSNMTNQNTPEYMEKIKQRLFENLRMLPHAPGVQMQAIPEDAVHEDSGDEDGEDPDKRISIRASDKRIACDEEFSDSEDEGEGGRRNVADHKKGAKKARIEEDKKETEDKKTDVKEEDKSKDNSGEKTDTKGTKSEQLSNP
T5 sequence (O15379 whole entry): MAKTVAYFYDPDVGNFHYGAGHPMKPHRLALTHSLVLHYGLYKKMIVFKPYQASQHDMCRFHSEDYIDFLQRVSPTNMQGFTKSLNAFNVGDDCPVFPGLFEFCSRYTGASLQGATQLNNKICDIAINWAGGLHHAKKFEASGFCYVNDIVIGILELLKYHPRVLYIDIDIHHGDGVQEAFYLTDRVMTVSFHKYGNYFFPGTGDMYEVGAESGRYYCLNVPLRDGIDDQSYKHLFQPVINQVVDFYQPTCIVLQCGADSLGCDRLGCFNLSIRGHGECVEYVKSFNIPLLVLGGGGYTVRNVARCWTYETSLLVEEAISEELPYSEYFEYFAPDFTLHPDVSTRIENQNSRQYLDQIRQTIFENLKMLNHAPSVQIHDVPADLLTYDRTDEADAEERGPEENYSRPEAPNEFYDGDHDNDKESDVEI
T5 sequence (Q9Y618 389-480 partner limits assumed): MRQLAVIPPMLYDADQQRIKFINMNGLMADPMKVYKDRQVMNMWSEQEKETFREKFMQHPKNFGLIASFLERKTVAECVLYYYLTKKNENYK

`CC(=O)N[C@@H](CCCCN)C(=O)NCC(=O)NCC(=O)N[C@@H](CCCCN)C(=O)NCC(=O)N[C@@H](CC(C)C)C(=O)NCC(=O)N[C@@H](CCCCCC(=O)NO)C(=O)NCC(=O)NCC(=O)N[C@@H](C)C(=O)N[C@@H](CCCCN)C(=O)N[C@@H](CCCNC(=N)N)C(=O)N[C@@H](Cc1c[nH]cn1)C(=O)N[C@@H](CCCNC(=N)N)C(=O)N[C@@H](Cc1c[nH]c2ccccc12)C(N)=O` [1a] (Ac-KGGKGLG[Asu](NHOH)GGAKRHRW-NH2) was tested, and the “residual enzymatic activity relative to control wells” value (HDAC8; log[inhibitor(M)] -4.30103) was 0.7299 and 0.6853, the “residual enzymatic activity relative to control wells” value (HDAC8; log[inhibitor(M)] -5) was 2.535 and 2.3091 and the “residual enzymatic activity relative to control wells” value (HDAC8; log[inhibitor(M)] -5.69897) was 8.883 and 8.651. For the same compound, the “residual enzymatic activity relative to control wells” value (HDAC8; log[inhibitor(M)] -6.39794) was 23.8025 and 24.0279, the “residual enzymatic activity relative to control wells” value (HDAC8; log[inhibitor(M)] -7.09691) was 53.2804 and 53.6221 and the “residual enzymatic activity relative to control wells” value (HDAC8; log[inhibitor(M)] -7.79588) was 81.5639 and 82.7228. The “residual enzymatic activity relative to control wells” value (HDAC8; log[inhibitor(M)] -8.49485) was 92.8692 and 94.6574, the “residual enzymatic activity relative to control wells” value (HDAC8; log[inhibitor(M)] -9.19382) was 96.2557 and 98.5897 and the “residual enzymatic activity relative to control wells” value (HDAC8; log[inhibitor(M)] -9.89279) was 97.4874 and 100.887. The “residual enzymatic activity relative to control wells” value (HDAC8; [1]) was 99,4860668* and 101,450216*, the “residual enzymatic activity relative to control wells” value (HDAC6; log[inhibitor(M)] -4.30103) was 2.005 and 0.9042 and the “residual enzymatic activity relative to control wells” value (HDAC6; log[inhibitor(M)] -5) was 3.396 and 1.499. The “residual enzymatic activity relative to control wells” value (HDAC6; log[inhibitor(M)] -5.69897) was 3.721 and 2.924, the “residual enzymatic activity relative to control wells” value (HDAC6; log[inhibitor(M)] -6.39794) was 6.701 and 7.197 and the “residual enzymatic activity relative to control wells” value (HDAC6; log[inhibitor(M)] -7.09691) was 17.8452 and 18.76. For the same compound, the “residual enzymatic activity relative to control wells” value (HDAC6; log[inhibitor(M)] -7.79588) was 40.4588 and 44.1884, the “residual enzymatic activity relative to control wells” value (HDAC6; log[inhibitor(M)] -8.49485) was 67.624 and 70.0247 and the “residual enzymatic activity relative to control wells” value (HDAC6; log[inhibitor(M)] -9.19382) was 82.7418 and 78.8697. For the same compound, the “residual enzymatic activity relative to control wells” value (HDAC6; log[inhibitor(M)] -9.89279) was 94.6266 and 87.8667, the “residual enzymatic activity relative to control wells” value (HDAC6; log[inhibitor(M)] -10.585) was 92.0979 and 95.7297 and the “residual enzymatic activity relative to control wells” value (HDAC2; log[inhibitor(M)] -5) was 2.133 and 2.791. The “residual enzymatic activity relative to control wells” value (HDAC2; log[inhibitor(M)] -5.69897) was 7.69 and 10.6271, the “residual enzymatic activity relative to control wells” value (HDAC2; log[inhibitor(M)] -7.79588) was 81.9038 and 87.9722 and the “residual enzymatic activity relative to control wells” value (HDAC2; [1]) was 96,4513363* and 102,627848*. The “residual enzymatic activity relative to control wells” value (HDAC1; log[inhibitor(M)] -4.30103) was 0.3873 and 0.804, the “residual enzymatic activity relative to control wells” value (HDAC1; log[inhibitor(M)] -5) was 1.615 and 1.98 and the “residual enzymatic activity relative to control wells” value (HDAC1; log[inhibitor(M)] -5.69897) was 4.97 and 7.056. The “residual enzymatic activity relative to control wells” value (HDAC1; log[inhibitor(M)] -6.39794) was 17.3755 and 23.9522, the “residual enzymatic activity relative to control wells” value (HDAC1; log[inhibitor(M)] -7.09691) was 42.4661 and 51.6182 and the “residual enzymatic activity relative to control wells” value (HDAC1; log[inhibitor(M)] -7.79588) was 69.6554 and 78.2753. The “residual enzymatic activity relative to control wells” value (HDAC1; log[inhibitor(M)] -8.49485) was 90.2096 and 95.3244, the “residual enzymatic activity relative to control wells” value (HDAC1; log[inhibitor(M)] -9.19382) was 98.0899 and 101.545 and the “residual enzymatic activity relative to control wells” value (HDAC1; log[inhibitor(M)] -9.89279) was 100.633 and 103.923. For the same compound, the “residual enzymatic activity relative to control wells” value (HDAC1; [1]) was 100,638665* and 104,135042*, the “residual enzymatic activity relative to control wells” value (HDAC3/NCoR2; log[inhibitor(M)] -4.30103) was 0,27707809* and 0,48240325* and the “residual enzymatic activity relative to control wells” value (HDAC3/NCoR2; log[inhibitor(M)] -5) was 1.078 and 1.224. The “residual enzymatic activity relative to control wells” value (HDAC3/NCoR2; log[inhibitor(M)] -5.69897) was 2.835 and 3.644, the “residual enzymatic activity relative to control wells” value (HDAC3/NCoR2; log[inhibitor(M)] -6.39794) was 8.976 and 10.8935 and the “residual enzymatic activity relative to control wells” value (HDAC3/NCoR2; log[inhibitor(M)] -7.09691) was 20.3107 and 23.0019. The “residual enzymatic activity relative to control wells” value (HDAC3/NCoR2; log[inhibitor(M)] -7.79588) was 35.6703 and 40.8157, the “residual enzymatic activity relative to control wells” value (HDAC3/NCoR2; log[inhibitor(M)] -8.49485) was 61.9563 and 69.3477 and the “residual enzymatic activity relative to control wells” value (HDAC3/NCoR2; log[inhibitor(M)] -9.19382) was 85.7851 and 89.42. For the same compound, the “residual enzymatic activity relative to control wells” value (HDAC3/NCoR2; log[inhibitor(M)] -9.89279) was 97.8645 and 95.529 and the “residual enzymatic activity relative to control wells” value (HDAC3/NCoR2; log[inhibitor(M)] -10.585) was 99.8741 and 99.2523.
